Patent US12281122B1, “PI3K inhibitors” (Cogent Biosciences, Inc., priority 2023, dated 2025)

Tests used:
PI3Kα = PI3Kα (Homo sapiens, UniProt P42336); assay: PI3Kα enzyme assay (Transcreener ADP2 TR-FRET Red Assay); type: biochemical; conditions: purified recombinant full-length protein; 2 hours pre-incubation with compound; read-out: PI3Kα WT IC50
How it was run: (§1)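 Purified recombinant full-length enzymes pre-incubated 2 h at room temperature with compounds (11-point 1:3 dilutions, typically 50,000–0.85 nM), then started with ATP/PI(4,5)P2 diC8 and run 60 min at room temperature in 40 mM HEPES pH 7.5, 20 mM NaCl, 25 mM MgCl2, 0.01% Triton X-100. ADP detected by TR-FRET 665/615 ratio; IC50 from four-parameter fit of percent of control.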

PI3Kα H1047R = PI3Kα H1047R (Homo sapiens, UniProt P42336, H1047R); assay: PI3Kα H1047R enzyme assay (Transcreener ADP2 TR-FRET Red Assay); type: biochemical; conditions: purified recombinant full-length protein; 2 hours pre-incubation with compound
PI3Kα H1047R, sequence (P42336 whole entry H1047R): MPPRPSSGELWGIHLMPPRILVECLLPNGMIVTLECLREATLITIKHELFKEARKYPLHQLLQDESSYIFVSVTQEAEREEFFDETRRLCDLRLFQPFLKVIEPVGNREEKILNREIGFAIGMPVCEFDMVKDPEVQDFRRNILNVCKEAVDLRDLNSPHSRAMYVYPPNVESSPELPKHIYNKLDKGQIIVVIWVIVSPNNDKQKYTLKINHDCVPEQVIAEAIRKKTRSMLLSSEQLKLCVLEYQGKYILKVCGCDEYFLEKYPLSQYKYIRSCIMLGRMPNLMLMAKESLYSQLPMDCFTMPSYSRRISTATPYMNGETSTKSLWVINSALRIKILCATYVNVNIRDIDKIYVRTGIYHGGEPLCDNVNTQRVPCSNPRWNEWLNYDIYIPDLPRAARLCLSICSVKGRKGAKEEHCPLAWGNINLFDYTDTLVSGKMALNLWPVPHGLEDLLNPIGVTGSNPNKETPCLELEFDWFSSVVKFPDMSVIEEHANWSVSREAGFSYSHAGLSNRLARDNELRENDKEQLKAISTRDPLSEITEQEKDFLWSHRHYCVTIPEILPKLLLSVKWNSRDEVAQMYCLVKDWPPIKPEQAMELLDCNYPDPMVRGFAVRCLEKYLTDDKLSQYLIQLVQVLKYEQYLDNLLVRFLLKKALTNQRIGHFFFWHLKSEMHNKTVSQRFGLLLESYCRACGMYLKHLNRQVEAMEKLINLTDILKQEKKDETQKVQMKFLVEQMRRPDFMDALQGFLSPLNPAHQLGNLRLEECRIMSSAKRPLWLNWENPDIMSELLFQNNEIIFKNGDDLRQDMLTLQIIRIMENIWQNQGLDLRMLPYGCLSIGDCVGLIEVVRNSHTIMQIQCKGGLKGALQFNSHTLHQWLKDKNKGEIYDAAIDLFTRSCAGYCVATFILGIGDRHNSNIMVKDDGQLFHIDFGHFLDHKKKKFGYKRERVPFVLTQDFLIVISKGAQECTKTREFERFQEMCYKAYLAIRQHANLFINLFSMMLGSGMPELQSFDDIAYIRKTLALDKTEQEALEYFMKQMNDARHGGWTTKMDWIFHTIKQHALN
PI3Kα H1047R, sequence (P27986 2-724 partner): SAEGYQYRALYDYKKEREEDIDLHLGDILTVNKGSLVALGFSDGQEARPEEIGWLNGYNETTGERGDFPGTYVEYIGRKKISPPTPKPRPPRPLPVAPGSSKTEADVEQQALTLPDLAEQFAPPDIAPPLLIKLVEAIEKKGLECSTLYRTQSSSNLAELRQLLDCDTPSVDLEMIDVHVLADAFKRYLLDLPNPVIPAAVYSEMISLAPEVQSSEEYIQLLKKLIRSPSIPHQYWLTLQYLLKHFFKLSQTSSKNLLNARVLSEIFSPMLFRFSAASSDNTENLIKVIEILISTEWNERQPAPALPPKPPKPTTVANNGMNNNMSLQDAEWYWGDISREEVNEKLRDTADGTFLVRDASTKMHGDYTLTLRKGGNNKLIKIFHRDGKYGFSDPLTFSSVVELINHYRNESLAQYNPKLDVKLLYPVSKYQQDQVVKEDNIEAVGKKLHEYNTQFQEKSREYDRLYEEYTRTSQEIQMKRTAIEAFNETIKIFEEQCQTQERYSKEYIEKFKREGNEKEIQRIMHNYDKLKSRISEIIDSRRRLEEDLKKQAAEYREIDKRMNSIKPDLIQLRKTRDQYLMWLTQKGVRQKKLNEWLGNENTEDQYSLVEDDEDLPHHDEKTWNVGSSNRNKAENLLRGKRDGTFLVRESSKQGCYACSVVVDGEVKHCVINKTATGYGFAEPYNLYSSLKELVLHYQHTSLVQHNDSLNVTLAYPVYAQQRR
How it was run: as §1

[1] = tested on: T47D (PI3Kα-H1047R) cell line; assay: HTRF phospho-AKT(S473) cell assay in T47D cells; type: cell-based, human; conditions: Homo sapiens; T47D (PI3Kα-H1047R) cells, HTRF phospho-AKT(S473), 2 hours compound incubation
How it was run: (§2)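 pAKT(S473) in lysates read by HTRF after a 2 h, 37 °C compound exposure (12-point 1:3 series, max 0.5% DMSO). SKBR3 (wild type, top 10 μM) received 70 ng/ml PDGF-BB during the final 15 min; T47D (H1047R, top 5 μM) was unstimulated. IC50 values derived from the dose-response.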

[2] = tested on: SKBR3 (PI3Kα-Wild Type) cell line; assay: HTRF phospho-AKT(S473) cell assay in SKBR3 cells; type: cell-based, human; conditions: Homo sapiens, SK-BR-3; SKBR3 (PI3Kα-Wild Type) cells, HTRF phospho-AKT(S473), 2 hours compound incubation, PDGF-BB stimulated
How it was run: as §2

PI3Kα, sequence (P42336 whole entry): as the sequence (P42336 whole entry H1047R) above, with R1047H counted along it
PI3Kα, sequence (P27986 2-724 partner): as the sequence (P27986 2-724 partner) above

Row | IC50 (PI3Kα) [nM] | IC50 (PI3Kα H1047R) [nM] | IC50 [1] [nM] | IC50 [2] [nM] | Structure (SMILES)
1 | ≥ 1000 | < 100 | 250 to 500 | ≥ 5000 | CCC(=O)NS(=O)(=O)c1nc(Cl)ccc1N[C@H](C)c1cc(C)cc2c(=O)n(C)c(N3Cc4ccc(F)cc4C3)nc12 [Compound 81, (R)-N-((6-chloro-3-((1-(2-(5-fluoroisoindolin-2-yl)-3,6-dimethyl-4-oxo-3,4-dihydroquinazolin-8-yl)ethyl)amino)pyridin-2-yl)sulfonyl)propionamide]
2 | ≥ 1000 | 100 to 250 | 250 to 500 | ≥ 5000 | CC(=O)NS(=O)(=O)c1nc(Cl)ccc1N[C@H](C)c1cc(C)cc2c(=O)n(C)c(N3Cc4ccc(F)cc4C3)nc12 [Compound 74, (R)—N-((6-chloro-3-((1-(2-(5-fluoroisoindolin-2-yl)-3,6-dimethyl-4-oxo-3,4-dihydroquinazolin-8-yl)ethyl)amino)pyridin-2-yl)sulfonyl)acetamide]
3 | ≥ 1000 | 250 to 500 | 250 to 500 | 1000 to 5000 | Cc1cc([C@@H](C)Nc2ccc(Cl)nc2C(=O)NS(C)(=O)=O)c2nc(N3CCC4(CCOCC4)C3)n(C)c(=O)c2c1 [Compound 33, (R)-6-chloro-3-((1-(3,6-dimethyl-4-oxo-2-(8-oxa-2-azaspiro[4.5]decan-2-yl)-3,4-dihydroquinazolin-8-yl)ethyl)amino)-N-(methylsulfonyl) picolinamide]
4 | ≥ 1000 | ≥ 1000 | 500 to 1000 | 1000 to 5000 | Cc1cc([C@@H](C)Nc2ccc(Cl)nc2C(=O)NS(C)(=O)=O)c2nc(N3CCC(F)(F)CC3)n(C)c(=O)c2c1 [Compound 57, (R)-6-chloro-3-((1-(2-(4,4-difluoropiperidin-1-yl)-3,6-dimethyl-4-oxo-3,4-dihydroquinazolin-8-yl)ethyl)amino)-N-(methylsulfonyl) picolinamide]
5 | ≥ 1000 | 100 to 250 | 250 to 500 | 1000 to 5000 | C[C@@H](Nc1ccc(Cl)nc1C(=O)NS(C)(=O)=O)c1cc(F)cc2c(=O)n(C)c(N3CCc4ccccc4C3)nc12 [Compound 31, (R)-6-chloro-3-((1-(2-(3,4-dihydroisoquinolin-2(1H)-yl)-6-fluoro-3-methyl-4-oxo-3,4-dihydroquinazolin-8-yl)ethyl)amino)-N-(methylsulfonyl) picolinamide]
6 | ≥ 1000 | ≥ 1000 | 250 to 500 | 1000 to 5000 | Cc1cc([C@@H](C)Nc2ccc(Cl)nc2C(=O)NS(C)(=O)=O)c2nc(N3CCO[C@@H](C)C3)n(C)c(=O)c2c1 [Compound 36, 6-chloro-3-(((R)-1-(3,6-dimethyl-2-((S)-2-methylmorpholino)-4-oxo-3,4-dihydroquinazolin-8-yl)ethyl)amino)-N-(methylsulfonyl) picolinamide]
7 | ≥ 1000 | ≥ 1000 | 1000 to 5000 | ≥ 5000 | C[C@@H](Nc1ccc[nH]c1=O)c1cc(F)cc2c(=O)n(C)c(N3Cc4cnn(C)c4C3)nc12 [Compound 98, (R)-6-fluoro-3-methyl-2-(1-methyl-4,6-dihydropyrrolo[3,4-c]pyrazol-5(1H)-yl)-8-(1-((2-oxo-1,2-dihydropyridin-3-yl)amino)ethyl)quinazolin-4(3H)-one]
8 | ≥ 1000 | ≥ 1000 | 1000 to 5000 | ≥ 5000 | Cc1ccc(N[C@H](C)c2cc(F)cc3c(=O)n(C)c(N4Cc5ccc(F)cc5C4)nc23)c(C(=O)NS(C)(=O)=O)n1 [Compound 61, (R)-3-((1-(6-fluoro-2-(5-fluoroisoindolin-2-yl)-3-methyl-4-oxo-3,4-dihydro-quinazolin-8-yl)ethyl)amino)-6-methyl-N-(methylsulfonyl) picolinamide]
9 | ≥ 1000 | 500 to 1000 | < 250 | 1000 to 5000 | Cc1cc([C@@H](C)Nc2ccc(Cl)nc2C(=O)NS(C)(=O)=O)c2nc(N3CCOCC3)n(C)c(=O)c2c1 [Compound 5, (R)-6-chloro-3-((1-(3,6-dimethyl-2-morpholino-4-oxo-3,4-dihydroquinazolin-8-yl)ethyl)amino)-N-(methylsulfonyl) picolinamide]
10 | ≥ 1000 | 250 to 500 | 250 to 500 | 1000 to 5000 | Cc1cc([C@@H](C)Nc2ccc(Cl)nc2C(=O)NS(C)(=O)=O)c2nc(N3CCC3)n(C)c(=O)c2c1 [Compound 15]
11 | ≥ 1000 | ≥ 1000 | < 250 | ≥ 5000 | Cc1cc([C@@H](C)Nc2ccc(Cl)[nH]c2=O)c2nc(N3Cc4ccc(F)cc4C3)n(C)c(=O)c2c1 [Compound 93, (R)-8-(1-((6-chloro-2-oxo-1,2-dihydropyridin-3-yl)amino)ethyl)-2-(5-fluoroisoindolin-2-yl)-3,6-dimethylquinazolin-4(3H)-one]
12 | 500 to 1000 | 250 to 500 | 250 to 500 | 1000 to 5000 | C[C@@H](Nc1ccc(Cl)nc1C(=O)NS(C)(=O)=O)c1cc(F)cc2c(=O)n(C)c(N3Cc4cccnc4C3)nc12 [Compound 32, (R)-6-chloro-3-((1-(2-(5,7-dihydro-6H-pyrrolo[3,4-b]pyridin-6-yl)-6-fluoro-3-methyl-4-oxo-3,4-dihydroquinazolin-8-yl)ethyl)amino)-N-(methylsulfonyl) picolinamide]
13 | ≥ 1000 | 500 to 1000 | 250 to 500 | 1000 to 5000 | Cc1cc([C@@H](C)Nc2ccc(Cl)nc2C(=O)NS(C)(=O)=O)c2nc(N3CCC(F)(F)C[C@H]3C)n(C)c(=O)c2c1 (single isomer, unassigned) [Compound 41, 6-chloro-3-(((R)-1-(2-((R*)-4,4-difluoro-2-methylpiperidin-1-yl)-3,6-dimethyl-4-oxo-3,4-dihydroquinazolin-8-yl)ethyl)amino)-N-(methylsulfonyl) picolinamide]
14 | ≥ 1000 | 100 to 250 | < 250 | 1000 to 5000 | Cc1cc([C@@H](C)Nc2ccc(Cl)nc2C(=O)NS(C)(=O)=O)c2nc(N3Cc4cn(CC(F)(F)F)nc4C3)n(C)c(=O)c2c1 [Compound 54, (R)-6-chloro-3-((1-(3,6-dimethyl-4-oxo-2-(2-(2,2,2-trifluoroethyl)-2,6-dihydropyrrolo[3,4-c]pyrazol-5(4H)-yl)-3,4-dihydroquinazolin-8-yl)ethyl)amino)-N-(methylsulfonyl) picolinamide]
15 | ≥ 1000 | ≥ 1000 | 1000 to 5000 | 1000 to 5000 | Cc1cc([C@@H](C)Nc2ccn[nH]c2=O)c2nc(N3Cc4ccc(F)cc4C3)n(C)c(=O)c2c1 [Compound 95, (R)-2-(5-fluoroisoindolin-2-yl)-3,6-dimethyl-8-(1-((3-oxo-2,3-dihydropyridazin-4-yl)amino)ethyl)quinazolin-4(3H)-one]
16 | ≥ 1000 | ≥ 1000 | 1000 to 5000 | ≥ 5000 | Cc1cc([C@@H](C)Nc2cc(C)c(F)nc2C(=O)NS(C)(=O)=O)c2nc(N3Cc4ccc(F)cc4C3)n(C)c(=O)c2c1 [Compound 69, (R)-6-fluoro-3-((1-(2-(5-fluoro-isoindolin-2-yl)-3,6-dimethyl-4-oxo-3,4-dihydroquinazolin-8-yl)ethyl)amino)-5-methyl-N-(methylsulfonyl)picolinamide]
17 | ≥ 1000 | ≥ 1000 | 1000 to 5000 | ≥ 5000 | Cc1cc([C@@H](C)Nc2cc(C)c(Cl)nc2C(=O)NS(C)(=O)=O)c2nc(N3Cc4ccc(F)cc4C3)n(C)c(=O)c2c1 [Compound 35, (R)-6-chloro-3-((1-(2-(5-fluoroisoindolin-2-yl)-3,6-dimethyl-4-oxo-3,4-dihydroquinazolin-8-yl)ethyl)amino)-5-methyl-N-(methylsulfonyl) picolinamide]
18 | ≥ 1000 | ≥ 1000 | 1000 to 5000 | ≥ 5000 | Cc1cc([C@@H](C)Nc2ccccc2S(=O)(=O)NC(=O)C(F)F)c2nc(N3Cc4ccc(F)cc4C3)n(C)c(=O)c2c1 [Compound 75, (R)-2,2-difluoro-N-((2-((1-(2-(5-fluoroisoindolin-2-yl)-3,6-dimethyl-4-oxo-3,4-dihydroquinazolin-8-yl)ethyl)amino)phenyl)sulfonyl)acetamide]
19 | ≥ 1000 | ≥ 1000 | 1000 to 5000 | ≥ 5000 | Cc1cc([C@@H](C)Nc2ccc(Cl)nc2C(=O)NS(C)(=O)=O)c2nc(-c3cccnc3C)n(C)c(=O)c2c1 [Compound 85, (R)-6-chloro-3-((1-(3,6-dimethyl-2-(2-methylpyridin-3-yl)-4-oxo-3,4-dihydroquinazolin-8-yl)ethyl)amino)-N-(methylsulfonyl) picolinamide]
20 | ≥ 1000 | 250 to 500 | 1000 to 5000 | ≥ 5000 | CNC(=O)NS(=O)(=O)c1nc(Cl)ccc1N[C@H](C)c1cc(C)cc2c(=O)n(C)c(N3Cc4ccc(F)cc4C3)nc12 [Compound 70, (R)-6-chloro-3-((1-(2-(5-fluoro-isoindolin-2-yl)-3,6-dimethyl-4-oxo-3,4-dihydroquinazolin-8-yl)ethyl)amino)-N-(methylcarb-amoyl)pyridine-2-sulfonamide]
